Test results published in patent US6479531B1, “Gastrin and cholecystokinin receptor ligands” (James Black Foundation Limited, priority 1998, dated 2002).

target: T1, CCKB receptor (Mus musculus, UniProt P56481); assay: CCKB receptor radioligand binding assay in mouse cortical membranes; conditions: [125I]-CCK8(S) 200 pM, 150 min at 21±3°
T1 construct: The whole brains from male mice (CD1 22-25 g; Charles River) were removed; from tissue; host or cells: cerebral cortex membranes of male CD1 mice
T1 sequence (P56481 1-453): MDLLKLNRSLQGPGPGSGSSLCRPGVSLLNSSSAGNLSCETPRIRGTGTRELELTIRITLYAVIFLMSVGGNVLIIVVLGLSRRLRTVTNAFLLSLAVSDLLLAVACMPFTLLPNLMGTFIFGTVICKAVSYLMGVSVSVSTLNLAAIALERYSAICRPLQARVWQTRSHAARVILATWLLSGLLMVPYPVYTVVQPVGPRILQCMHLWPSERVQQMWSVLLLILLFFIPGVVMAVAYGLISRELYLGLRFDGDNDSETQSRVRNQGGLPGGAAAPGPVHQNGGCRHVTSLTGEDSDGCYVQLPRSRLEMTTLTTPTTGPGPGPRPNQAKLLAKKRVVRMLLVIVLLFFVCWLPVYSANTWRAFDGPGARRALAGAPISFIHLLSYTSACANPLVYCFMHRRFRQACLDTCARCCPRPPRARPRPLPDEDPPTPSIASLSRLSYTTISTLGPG
Description: The compounds of the examples were tested for binding at the CCKB receptor in mouse cortical membranes by means of a radioligand binding assay. The procedure was as follows:
The whole brains from male mice (CD1 22-25 g; Charles River) were removed and placed in ice-cold buffer (pH 7.2 @ 21±3°) of the following composition (mM); 10 HEPES, 130 NaCl, 4.7 KCl, 5 MgCl2, 1 EDTA and containing 0.25 gl^−1 bacitracin. The cortex was dissected, weighed and homogenised in 40 ml ice-cold buffer using a Teflon-in-glass homogeniser. The homogenate was centrifuged at 39800 g for 20 min […], the supernatant discarded and the pellet resuspended by homogenisation in fresh buffer. The homogenate was recentrifuged (39800 g, 20 min @ 4°) and the final pellet was resuspended in HEPES buffer to give a tissue concentration of 20 mg ml^−1 (original wet weight).
The assay was terminated by rapid filtration through pre-soaked Whatman GF/B filters using a Brandell Cell Harvester. The filters were washed (3×3 ml) with ice-cold 50 mM Tris-HCl (pH 7.4 @ 4° C.) and bound radioactivity determined by counting (1 min) in a gamma-counter.

Compound | CCKB pKi
3-{[5-(2-Methyl-butyl)-2-o-tolyl-1H-imidazole-4-carbonyl]-amino}-benzoic Acid [Example 90] | 5.16

same assay, conditions: [125I]-CCK8(S) 200 pM, 150 min at 21±3°, read-out: CCKB pKi (converted)

Compound | Ki [nM]
O=C(O)c1cc(NC(=O)c2nc(-c3ccccc3C(F)(F)F)[nH]c2CCC2CCCCCC2)cc(C(=O)O)c1 [Example 41, 5-{[5-(2-Cycloheptyl-ethyl)-2-(2-trifluoromethyl-phenyl)-1H-imidazole-4-carbonyl]-amino}-isophthalic Acid] | 4370
Cn1c(-c2ccccc2)cc(C(=O)Nc2cc(C(=O)O)cc(C(=O)O)c2)c1CC12CC3CC(CC(C3)C1)C2 [Example 8, 5-[(2-Adamantan-1-ylmethyl-1-methyl-5-phenyl-1H-pyrrole-3-carbonyl)-amino]-isophthalic Acid] | 1020
Cc1ccccc1-c1nc(C(=O)Nc2ccc(F)c(C(=O)O)c2F)c(CCC23CC4CC(CC(C4)C2)C3)[nH]1 [Example 248, 3-{[5-(2-Adamantan-1-yl-ethyl)-2-o-tolyl-1H-imidazole-4-carbonyl]-amino}-2,6-difluoro-benzoic Acid] | 25.7
O=C(O)CCNC(=O)c1nc(-c2ccccc2F)[nH]c1CCC12CC3CC(CC(C3)C1)C2 [Example 52, 3-{[5-(2-Adamantan-1-yl-ethyl)-2-(2-fluoro-phenyl)-1H-imidazole-4-carbonyl]-amino}-propionic Acid] | 2570
O=C(O)c1cc(NC(=O)c2nc[nH]c2CC2CCCCCC2)cc(C(=O)O)c1 [Example 35, 5-[(5-Cycloheptylmethyl-1H-imidazole-4-carbonyl)-amino]-isophthalic Acid] | 3890
O=C(O)c1cccc(NC(=O)c2nc(-c3cccc4ccccc34)[nH]c2CCC23CC4CC(CC(C4)C2)C3)c1 [Example 145, 3-{[5-(2-Adamantan-1-yl-ethyl)-2-naphthalen-1-yl-1H-imidazole-4-carbonyl]-amino}-benzoic Acid] | 263
O=C(O)c1cc(NC(=O)c2nc(-c3ccc[nH]3)[nH]c2CC2CCCCCC2)cc(C(=O)O)c1 [Example 33, 5-[(5-Cycloheptylmethyl-2-(1H-pyrrol-2-yl)-1H-imidazole-4-carbonyl)-amino]-isophthalic Acid] | 1860
O=C(O)c1cccc(NC(=O)c2nc(-c3ccccc3)[nH]c2CCC2CCCCCC2)c1 [Example 38, 3-{[5-(2-Cycloheptyl-ethyl)-2-phenyl-1H-imidazole-4-carbonyl]-amino}-benzoic Acid] | 1120
O=C(O)c1cccc(NC(=O)c2nc(-c3ccccc3O)[nH]c2CCC23CC4CC(CC(C4)C2)C3)c1 [Example 64, 3-{[5-(2-Adamantan-1-yl-ethyl)-2-(2-hydroxy-phenyl)-1H-imidazole-4-carbonyl]-amino}-benzoic Acid] | 1380
O=C(O)c1cccc(NC(=O)c2nc(-c3ccc4ccccc4c3)[nH]c2CCC23CC4CC(CC(C4)C2)C3)c1 [Example 45, 3-{[5-(2-Adamantan-1-yl-ethyl)-2-naphthalen-2-yl-1H-imidazole-4-carbonyl]-amino}-benzoic Acid] | 501
Cc1ccccc1-c1cc(C(=O)Nc2cccc(C(=O)O)c2)c(CCC23CC4CC(CC(C4)C2)C3)[nH]1 [Example 123, 3-{[2-(2-Adamantan-1-yl-ethyl)-5-o-tolyl-1H-pyrrole-3-carbonyl]-amino}-benzoic Acid] | 204
Cc1ccccc1-c1nc(C(=O)Nc2cccc(C(=O)O)c2)c(CCC23CC4CC(CC(C4)C2)C3)o1 [Example 120, 3-{[5-(2-Adamanatan-1-yl-ethyl)-2-o-tolyl-oxazole-4-carbonyl]-amino}-benzoic Acid] | 1550
Cc1ccccc1-c1nc(C(=O)Nc2cccc(C(=O)O)c2)c(CC23CC4CC(CC(C4)C2)C3)[nH]1 [Example 170, 3-[(5-Adamantan-1-ylmethyl-2-o-tolyl-1H-imidazole-4-carbonyl)-amino]-benzoic Acid] | 1450
O=C(O)c1cc(NC(=O)c2nc(-c3cccnc3)[nH]c2CC2CCCCCC2)cc(C(=O)O)c1 [Example 32, 5-[(5-Cycloheptylmethyl-2-pyridin-3-yl-1H-imidazole-4-carbonyl)-amino]-isophthalic Acid] | 4790
O=C(O)c1cccc(NC(=O)c2nc(C34CC5CC(CC(C5)C3)C4)[nH]c2CCC23CC4CC(CC(C4)C2)C3)c1 [Example 109, 3-{[2-Adamantan-1-yl-5-(2-adamantan-1-yl-ethyl)-1H-imidazole-4-carbonyl]-amino}-benzoic Acid] | 44.7
Cc1ccccc1-c1nc(CCc2cccc(C(=O)O)c2)c(C(=O)NC23CC4CC(CC(C4)C2)C3)[nH]1 [Example 118, 3-{2-[5(Adamantan-1-ylcarbamoyl)-2-o-tolyl-1H-imidazole-4-yl]-ethyl}-benzoic Acid] | 776
Cc1cc(NC(=O)c2nc(-c3ccccc3C)[nH]c2CCC23CC4CC(CC(C4)C2)C3)cc(C(=O)O)c1 [Example 247, 3-{[5-(2-Adamantan-1-yl-ethyl)-2-o-tolyl-1H-imidazole-4-carbonyl]-amino}-5-methyl-benzoic Acid] | 302
COc1ccc(NC(=O)c2nc(-c3ccccc3C)[nH]c2CCC23CC4CC(CC(C4)C2)C3)cc1C(=O)O [Example 244, 5-{[5-(2-Adamantan-1-yl-ethyl)-2-o-tolyl-1H-imidazole-4-carbonyl]-amino}-2-methoxy-benzoic Acid] | 182
O=C(Nc1cc(-c2nnn[nH]2)cc(-c2nnn[nH]2)c1)c1nc(-c2ccccc2)[nH]c1CC1CCCCCC1 [Example 25, 5-Cycloheptyimethyl-2-phenyl-1H-imidazole-4-carboxylic Acid [3,5-bis-(1H-tetrazol-5-yl)-phenyl]-amide] | 69.2
O=C(O)c1cc(NC(=O)c2ncn(Cc3ccccc3)c2CC2CCCCCC2)cc(C(=O)O)c1 [Example 36, 5-[(1-Benzyl-5-cycloheptylmethyl-1H-imidazole-4-carbonyl)-amino]-isophthalic Acid] | 3160
O=C(Nc1cccc(-c2nnn[nH]2)c1)c1cc(-c2ccc3ccccc3c2)[nH]c1CC1CCCCCC1 [Example 16, 2-Cycloheptylmethyl-5-naphthalen-2-yl-1H-pyrrole-3-carboxylic Acid [3-(1H-tetrazol-5-yl)-phenyl]-amide] | 724
O=C(O)c1cc(NC(=O)c2nc(-c3ccccc3)[nH]c2CCC2CCCCCC2)cc(C(=O)O)c1 [Example 39, 5-{[5-(2-Cycloheptyl-ethyl)-2-phenyl-1H-imidazole-4-carbonyl]-amino}-isophthalic Acid] | 2040
O=C(O)c1cccc(NC(=O)c2cc(-c3ccc4ccccc4c3)[nH]c2CC2CCCCCC2)c1 [Example 14, 3-[(2-Cycloheptylmethyl-5-naphthalen-2-yl-1H-pyrrole-3-carbonyl)-amino]-benzoic Acid] | 1320
Cc1ccccc1-c1nc(C(=O)Nc2cccc(C(=O)NS(=O)(=O)c3ccccc3)c2)c(CCC23CC4CC(CC(C4)C2)C3)[nH]1 [Example 101, 5-(2-Adamantan-1-yl-ethyl)-2-o-tolyl-1H-imidazole-4-carboxylic acid (3-benzenesulfonylaminocarbonyl-phenyl)-amide] | 372
